Data taken from patent publication US10052320B2, “Substituted quinoxalines as FGFR kinase inhibitors” (ASTEX THERAPEUTICS LIMITED, priority 2011, dated 2018).

How the values were obtained:
FGFR2 (h) = FGFR2 (h) (Homo sapiens, UniProt P21802); assay: FGFR2 (enzymatic assay), TR-FRET; type: biochemical; details: read-out: FGFR 2 pIC50 (converted)
Procedure: In a final reaction volume of 30 μL, FGFR2 (h) (150 ng/ml) was incubated with 50 mM HEPES pH 7.5, 6 mM MnCl2, 1 mM DTT, 0.1 mM Na3VO4, 0.01% Triton-X-100, 500 nM Btn-Flt3 and 0.4 μM ATP in the presence of compound (1% DMSO final). […] Time-Resolved Fluorescence Resonance Energy Transfer (TR-FRET) signal (ex340 nm. Em 620 nm, em 655 nm) was measured afterwards and results are expressed in (Relative Fluorescence Units).

FGFR3 (h) = FGFR3 (h) (Homo sapiens, UniProt P22607); assay: FGFR3 (enzymatic assay), TR-FRET; type: biochemical; details: read-out: FGFR 3 pIC50 (converted)
Procedure: In a final reaction volume of 30 μL, FGFR3 (h) (40 ng/ml) was incubated with 50 mM HEPES pH 7.5, 6 mM MnCl2, 1 mM DTT, 0.1 mM Na3VO4, 0.01% Triton-X-100, 500 nM Btn-Flt3 and 25 μM ATP in the presence of compound (1% DMSO final). […] Time-Resolved Fluorescence Resonance Energy Transfer (TR-FRET) signal (ex340 nm. Em 620 nm, em 655 nm) was measured afterwards and results are expressed in RFU (Relative Fluorescence Units).

KDR (h) (VEGFR2) = KDR (h) (VEGFR2) (Homo sapiens, UniProt P35968); assay: KDR (VEGFR2) (enzymatic assay), TR-FRET; type: biochemical
Outline: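 Human KDR (150 ng/ml) was reacted with 500 nM Btn-Flt3 and 3 μM ATP in 50 mM HEPES pH 7.5, 6 mM MnCl2, 1 mM DTT, 0.1 mM Na3VO4, 0.01% Triton X-100, 1% DMSO, for 120 min at room temperature. Phosphorylation detected by TR-FRET (Eu-anti-P-Tyr/SA-XL665, 60 min), read in RFU.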

[1] = target: Ba/F3-FGFR3-transfected cells (Homo sapiens, UniProt P22607); assay: Ba/F3-FGFR3 (minus IL3) cellular proliferation assay, Alamar Blue; type: cell-based; details: for BAF3-FGFR 3 (MIN IL3) 384 well pIC50: minus IL3, 384 well
Procedure: Ba/F3-FGFR3 (Minus IL3 or Plus IL3) (Cellular Proliferation Assay)
Cells were put in an incubator at 37° C. and 5% CO2. After 24 hours, 10 μl of Alamar Blue solution (0.5 mM K3Fe(CN)6, 0.5 mM KaFe(CN)6, 0.15 mM Resazurin and 100 mM Phosphate Buffer) was added to the wells, incubated for 4 hours at 37° C. and 5% CO2 before RFU's (Relative Fluorescence Units) (ex. 540 nm., em. 590 nm.) were measured in a flurorescence plate reader. […]
(§1) In a 96 well plate, 180 μl cell culture medium (phenol red free RPMI-1640, 10% FBS, 2 mM L-Glutamine and 50 μg/ml Gentamycin) containing 10000 cells per well of Ba/F3-FGFR3-transfected cells were pipette and 20 μl of compound dilution in DMSO was added. Cells were put in an incubator at 37° C. and 5% CO2. After 24 hours, 40 μl of Alamar Blue solution (0.5 mM K3Fe(CN)6, 0.5 mM KaFe(CN)6, 0.15 mM Resazurin and 100 mM Phosphate Buffer) was added to the wells, incubated for 4 hours at 37° C. and 5% CO2 before RFU's (Relative Fluorescence Units) (ex. 540 nm., em. 590 nm.) were measured in a flurorescence plate reader.

[2] = target: Ba/F3-KDR-transfected cells (Homo sapiens, UniProt P35968); assay: Ba/F3-KDR (minus IL3) cellular proliferation assay, Alamar Blue; type: cell-based; details: minus IL3
Outline: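 Ba/F3-KDR cells in RPMI-1640 with 10% FBS, 20000 (384-well) or 10000 (96-well) per well, given compound for 24 h at 37° C; Alamar Blue then added for 4 h and fluorescence read (ex 540/em 590 nm). Counterscreen run identically with 10 ng/ml murine IL3.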

[3] = target: Ba/F3-FGFR4-transfected cells (Homo sapiens, UniProt P22455); assay: Ba/F3-FGFR4 cellular proliferation assay, Alamar Blue; type: cell-based
Procedure: Ba/F3-FGFR4 (Cellular Proliferation Assay)
as §1, with “a 384” for “a 96”, “plate, 100 nl of compound dilution in DMSO was sprayed before adding 50” for “plate, 180”, “containing 20000” for “containing 10000”, “of Ba/F3-FGFR4-transfected cells.” for “of Ba/F3-FGFR3-transfected cells were pipette and 20 μl of compound dilution in DMSO was added.”, “hours, 10” for “hours, 40”

Ba/F3-FGFR3-transfected cells, sequence (P22607 whole entry, change not shown): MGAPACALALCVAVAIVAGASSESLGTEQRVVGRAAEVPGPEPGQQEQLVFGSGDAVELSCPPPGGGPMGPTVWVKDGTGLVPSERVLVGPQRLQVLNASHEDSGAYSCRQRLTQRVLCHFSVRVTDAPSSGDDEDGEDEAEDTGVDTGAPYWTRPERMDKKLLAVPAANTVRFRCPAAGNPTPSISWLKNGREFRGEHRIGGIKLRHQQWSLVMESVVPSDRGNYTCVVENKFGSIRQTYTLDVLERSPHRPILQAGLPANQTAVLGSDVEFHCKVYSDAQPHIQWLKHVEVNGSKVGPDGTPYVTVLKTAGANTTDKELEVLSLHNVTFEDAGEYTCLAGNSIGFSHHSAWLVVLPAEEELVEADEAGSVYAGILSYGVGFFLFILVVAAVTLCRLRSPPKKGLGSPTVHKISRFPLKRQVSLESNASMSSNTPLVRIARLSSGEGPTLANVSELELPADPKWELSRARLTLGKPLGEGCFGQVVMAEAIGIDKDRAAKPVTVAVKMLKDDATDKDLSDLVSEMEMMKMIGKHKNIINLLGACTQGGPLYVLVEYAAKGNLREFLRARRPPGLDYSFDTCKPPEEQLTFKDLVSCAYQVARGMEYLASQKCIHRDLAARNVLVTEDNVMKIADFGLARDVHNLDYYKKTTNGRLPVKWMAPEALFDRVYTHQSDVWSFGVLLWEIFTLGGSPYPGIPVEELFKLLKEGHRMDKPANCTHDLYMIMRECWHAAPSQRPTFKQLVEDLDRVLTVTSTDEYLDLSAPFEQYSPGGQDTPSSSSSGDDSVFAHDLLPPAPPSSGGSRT
Ba/F3-KDR-transfected cells, sequence (P35968 whole entry, change not shown): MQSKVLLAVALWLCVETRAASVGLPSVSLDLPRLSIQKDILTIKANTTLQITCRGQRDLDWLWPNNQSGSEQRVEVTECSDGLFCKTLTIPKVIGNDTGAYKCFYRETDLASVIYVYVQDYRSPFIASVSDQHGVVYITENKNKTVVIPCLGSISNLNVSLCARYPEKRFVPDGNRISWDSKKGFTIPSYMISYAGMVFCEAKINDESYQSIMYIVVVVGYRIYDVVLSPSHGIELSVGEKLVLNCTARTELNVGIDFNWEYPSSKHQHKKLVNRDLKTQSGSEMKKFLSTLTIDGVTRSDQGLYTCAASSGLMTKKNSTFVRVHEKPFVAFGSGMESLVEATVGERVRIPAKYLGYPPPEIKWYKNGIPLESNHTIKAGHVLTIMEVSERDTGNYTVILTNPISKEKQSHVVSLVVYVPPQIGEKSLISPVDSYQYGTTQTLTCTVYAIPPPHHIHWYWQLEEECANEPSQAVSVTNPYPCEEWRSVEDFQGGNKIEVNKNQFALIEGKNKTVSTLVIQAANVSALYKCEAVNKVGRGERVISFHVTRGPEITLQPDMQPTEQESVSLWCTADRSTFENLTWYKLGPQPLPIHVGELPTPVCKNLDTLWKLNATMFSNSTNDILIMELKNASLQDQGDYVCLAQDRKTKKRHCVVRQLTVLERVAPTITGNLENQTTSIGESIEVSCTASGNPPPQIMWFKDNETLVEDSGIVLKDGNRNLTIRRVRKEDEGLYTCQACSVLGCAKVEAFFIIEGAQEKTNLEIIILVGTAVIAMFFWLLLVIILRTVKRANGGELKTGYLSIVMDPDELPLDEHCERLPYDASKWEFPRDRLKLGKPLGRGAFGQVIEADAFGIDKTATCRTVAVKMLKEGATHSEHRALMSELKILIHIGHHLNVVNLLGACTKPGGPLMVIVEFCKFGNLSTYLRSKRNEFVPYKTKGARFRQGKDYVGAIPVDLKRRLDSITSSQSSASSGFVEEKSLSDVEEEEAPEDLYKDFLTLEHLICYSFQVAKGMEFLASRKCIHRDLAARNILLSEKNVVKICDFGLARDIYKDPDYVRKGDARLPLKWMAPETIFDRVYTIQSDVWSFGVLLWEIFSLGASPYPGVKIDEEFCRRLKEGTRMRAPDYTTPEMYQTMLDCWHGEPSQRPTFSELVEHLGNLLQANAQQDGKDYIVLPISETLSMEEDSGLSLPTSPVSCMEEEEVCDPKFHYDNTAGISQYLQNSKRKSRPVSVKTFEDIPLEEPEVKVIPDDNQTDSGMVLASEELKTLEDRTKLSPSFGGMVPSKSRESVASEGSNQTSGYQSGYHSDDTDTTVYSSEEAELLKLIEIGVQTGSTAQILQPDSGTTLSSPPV
Ba/F3-FGFR4-transfected cells, sequence (P22455 whole entry, change not shown): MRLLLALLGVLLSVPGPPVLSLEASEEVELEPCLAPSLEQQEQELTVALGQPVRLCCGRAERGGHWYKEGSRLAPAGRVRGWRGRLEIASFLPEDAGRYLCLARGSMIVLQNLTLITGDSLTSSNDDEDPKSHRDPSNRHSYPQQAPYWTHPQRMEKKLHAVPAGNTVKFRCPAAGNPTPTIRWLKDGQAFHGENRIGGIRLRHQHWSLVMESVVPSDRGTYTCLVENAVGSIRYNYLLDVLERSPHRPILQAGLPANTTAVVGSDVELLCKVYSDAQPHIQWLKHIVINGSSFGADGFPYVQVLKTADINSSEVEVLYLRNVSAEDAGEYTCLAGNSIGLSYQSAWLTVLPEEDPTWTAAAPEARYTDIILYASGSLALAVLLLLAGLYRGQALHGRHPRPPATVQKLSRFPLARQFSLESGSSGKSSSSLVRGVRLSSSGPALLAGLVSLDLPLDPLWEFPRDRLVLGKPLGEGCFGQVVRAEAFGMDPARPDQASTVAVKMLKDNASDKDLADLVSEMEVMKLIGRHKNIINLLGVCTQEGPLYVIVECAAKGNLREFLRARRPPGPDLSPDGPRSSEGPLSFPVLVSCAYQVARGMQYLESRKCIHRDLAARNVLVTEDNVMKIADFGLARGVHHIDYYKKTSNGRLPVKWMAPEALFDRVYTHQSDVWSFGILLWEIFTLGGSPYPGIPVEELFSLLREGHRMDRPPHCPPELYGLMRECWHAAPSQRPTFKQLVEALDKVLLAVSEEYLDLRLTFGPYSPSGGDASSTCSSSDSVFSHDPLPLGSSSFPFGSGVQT
FGFR2 (h), sequence (P21802 22-821): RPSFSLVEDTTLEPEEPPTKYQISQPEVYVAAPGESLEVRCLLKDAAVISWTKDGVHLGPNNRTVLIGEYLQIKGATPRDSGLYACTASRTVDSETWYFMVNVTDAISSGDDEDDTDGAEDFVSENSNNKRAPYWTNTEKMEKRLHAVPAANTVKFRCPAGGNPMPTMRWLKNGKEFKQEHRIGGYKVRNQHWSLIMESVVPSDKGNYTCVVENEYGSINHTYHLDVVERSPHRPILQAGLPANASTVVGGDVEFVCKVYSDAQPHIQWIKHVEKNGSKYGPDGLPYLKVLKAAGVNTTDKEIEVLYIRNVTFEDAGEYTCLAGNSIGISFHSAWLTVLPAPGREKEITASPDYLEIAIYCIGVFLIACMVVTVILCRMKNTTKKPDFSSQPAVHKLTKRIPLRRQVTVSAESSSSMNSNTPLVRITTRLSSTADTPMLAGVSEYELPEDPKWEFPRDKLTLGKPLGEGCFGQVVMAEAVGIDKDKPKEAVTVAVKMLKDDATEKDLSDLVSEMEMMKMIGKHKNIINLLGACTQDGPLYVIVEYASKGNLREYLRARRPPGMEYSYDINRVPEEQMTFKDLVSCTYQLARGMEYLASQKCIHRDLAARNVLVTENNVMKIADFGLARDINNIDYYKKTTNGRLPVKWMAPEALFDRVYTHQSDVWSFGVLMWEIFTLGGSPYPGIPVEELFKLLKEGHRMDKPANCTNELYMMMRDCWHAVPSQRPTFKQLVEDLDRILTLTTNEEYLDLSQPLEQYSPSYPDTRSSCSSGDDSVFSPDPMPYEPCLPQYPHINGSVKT
KDR (h) (VEGFR2), sequence (P35968 20-1356): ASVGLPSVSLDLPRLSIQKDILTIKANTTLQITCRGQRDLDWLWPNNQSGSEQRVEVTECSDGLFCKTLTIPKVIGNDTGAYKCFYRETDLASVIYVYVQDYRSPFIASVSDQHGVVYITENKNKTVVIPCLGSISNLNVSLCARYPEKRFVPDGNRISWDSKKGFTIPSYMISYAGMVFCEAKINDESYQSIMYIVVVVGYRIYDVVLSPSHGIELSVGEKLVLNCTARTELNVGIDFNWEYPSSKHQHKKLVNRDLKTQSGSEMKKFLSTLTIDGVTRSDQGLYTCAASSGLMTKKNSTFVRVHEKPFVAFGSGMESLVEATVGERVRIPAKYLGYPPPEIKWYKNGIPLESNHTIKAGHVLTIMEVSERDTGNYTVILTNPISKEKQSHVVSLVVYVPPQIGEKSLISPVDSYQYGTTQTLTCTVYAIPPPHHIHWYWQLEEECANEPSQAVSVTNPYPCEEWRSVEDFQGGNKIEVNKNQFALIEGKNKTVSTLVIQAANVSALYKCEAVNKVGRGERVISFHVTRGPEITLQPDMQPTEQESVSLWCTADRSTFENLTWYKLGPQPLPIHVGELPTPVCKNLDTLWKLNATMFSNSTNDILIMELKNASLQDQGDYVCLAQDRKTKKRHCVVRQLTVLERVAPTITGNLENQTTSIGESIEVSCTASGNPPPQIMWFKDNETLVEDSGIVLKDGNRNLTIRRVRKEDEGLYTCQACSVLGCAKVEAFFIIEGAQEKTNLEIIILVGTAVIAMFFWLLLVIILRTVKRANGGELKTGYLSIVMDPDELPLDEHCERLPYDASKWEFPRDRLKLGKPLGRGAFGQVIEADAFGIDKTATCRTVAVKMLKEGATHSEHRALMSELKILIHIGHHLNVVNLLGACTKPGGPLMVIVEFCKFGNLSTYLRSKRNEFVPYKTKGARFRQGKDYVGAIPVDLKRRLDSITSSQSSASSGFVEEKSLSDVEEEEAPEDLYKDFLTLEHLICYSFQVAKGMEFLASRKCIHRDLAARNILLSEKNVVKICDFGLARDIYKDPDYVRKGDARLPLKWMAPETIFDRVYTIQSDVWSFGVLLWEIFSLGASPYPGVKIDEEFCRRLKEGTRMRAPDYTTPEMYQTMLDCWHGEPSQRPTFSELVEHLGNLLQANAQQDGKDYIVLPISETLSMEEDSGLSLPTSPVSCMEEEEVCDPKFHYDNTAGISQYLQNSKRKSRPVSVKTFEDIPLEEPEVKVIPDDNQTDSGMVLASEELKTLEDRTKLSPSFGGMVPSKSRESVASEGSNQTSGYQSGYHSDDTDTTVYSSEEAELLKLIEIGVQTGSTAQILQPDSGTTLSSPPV

Row | SMILES | IC50 (FGFR2 (h)) [nM] | IC50 (FGFR3 (h)) [nM] | IC50 (KDR (h) (VEGFR2)) [nM] | BAF3-FGFR 3 (MIN IL3) 384 well pIC50 [1] | BAF3-KDR (MIN IL3) 384 well pIC50 [2] | BAF3-FGFR4 pIC50 [3] | BAF3-FGFR 3 (MIN IL3) 96 well pIC50 ([1]; minus IL3, 96 well)
1 | COc1cc(OC)cc(N(CCCNCC(F)(F)F)c2ccc3ncc(-c4cnc(OC)nc4)nc3c2)c1 [Compound 26] | 138 | 100 | > 1000 | <5 | <5 | ~5.1 | 
2 | COc1cc(OC)cc(N(CCCO)c2ccc3ncc(-c4ccnc(C(=O)NCCCCCN)c4)nc3c2)c1 [Compound 130] | 8.32 | 11.2 | 550 | 5.2 | <5 | 5.0 | 
3 | COc1cc(OC)cc(N(CCNC(C)C)c2ccc3ncc(-n4cnc(CO)c4)nc3c2)c1 [Compound 77] | 9.12 | 12 | 513 | 7.12 | 5.29 | 6.9 | 
4 | COc1cc(OC)cc(N(CCCO)c2ccc3ncc(-c4ccnc(C(=O)N5CCOCC5)c4)nc3c2)c1 [Compound 43] | 13.2 | 3.8 | 245 | 6.25 | 5.07 | 6.0 | 
5 | COCC(CN(c1cc(OC)cc(OC)c1)c1ccc2ncc(-c3cccnc3)nc2c1)OC(C)=O (single isomer, unassigned) [Compound 76] | 20 | 5.75 | 389 | 6.59 | <5 | 5.6 | 
6 | COc1cc(OC)cc(N(CCO)c2ccc3ncc(-c4ccc(N5CCOCC5)nc4)nc3c2)c1 [Compound 19] | 10.7 | 1.95 | 170 | 6.17 | <5 | 6.1 | 
7 | COc1cc(OC)cc(N(CCN2CCOCC2)c2ccc3ncc(-c4ccc(N)nc4)nc3c2)c1 [Compound 169] | 15.8 | 6.46 | 126 | 6.19 | 5.1 | 6.0 | 
8 | COc1cc(OC)cc(N(CCCNCC(F)(F)F)c2ccc3ncc(-c4ccnc(C(=O)NCCCN)c4)nc3c2)c1 [Compound 148] | 58.9 | 61.7 | > 1000 | <5 | <5 | <5 | 
9 | COc1cc(OC)cc(N(CCNC(C)C)c2ccc3ncc(-c4ccnc(C(=O)NCCCN)c4)nc3c2)c1 [Compound 146] | 8.13 | 12.3 | 269 | 6.41 | <5 | 6.3 | 
10 | COc1cc(OC)cc(N(CCNC(C)C)c2ccc3ncc(NCC4CCNCC4)nc3c2)c1 [Compound 161] | 14.1 | 44.7 | 617 | 5.38 | <5 | <5 | 
11 | COc1cc(OC)cc(N(CCO)c2ccc3ncc(-c4ccc(N5CCNCC5)nc4)nc3c2)c1 [Compound 165] | 12.6 | 4.9 | 129 | 6.12 | 5.36 | 6.6 | 
12 | COc1cc(OC)cc(N(CCCNCC(F)(F)F)c2ccc3ncc(C(=O)NCCN4CCOCC4)nc3c2)c1 [Compound 158] | 661 | 537 | > 1000 | <5 | <5 | 5.1 | 
13 | COc1cc(OC)cc(N(CCNC(C)C)c2ccc3ncc(-c4ccc(N5CCN(C)CC5)nc4)nc3c2)c1 [Compound 170] | 3.98 | 6.17 | 135 | 6.16 | <5 | 6.2 | 
14 | COc1cc(OC)cc(N(CCN2CCN(C(C)=O)CC2)c2ccc3ncc(-c4ccc(N)nc4)nc3c2)c1 [Compound 68] | 33.9 | 33.9 | 229 | ~6.15 | <5 | 5.7 | 
15 | COc1cc(OC)cc(N(CC2CC2)c2ccc3ncc(-c4c[nH]cn4)nc3c2)c1 [Compound 39] | 81.3 | 29.5 | 2950 | 5.08 | <5 | <5 | 5.51
16 | COc1cc(OC)cc(N(CCCO)c2ccc3ncc(-c4ccnc(-c5ccnc(Cl)c5)c4)nc3c2)c1 [Compound 133] | 115 | 50.1 | > 1000 | <5 | <5 | <5 | 
17 | COc1cc(OC)cc(N(CCCO)c2ccc3ncc(-c4ccnc(C(=O)NCCOCCO)c4)nc3c2)c1 [Compound 186] | 36.3 | 16.2 | 871 | 5.8 | <5 | 5.57 | 
